# Laboratory results as given in patent publication US20190086390A1, “INDIRECT ASSESSMENT OF INSULIN RELEASE IN A CELL” (Board of Supervisors of Louisiana State University and …, priority 2016, published 2019).
# “Also recorded” adds a separate entry of the source.
# Columns and labels:
# Assay type in all cases: cell-based, rat
# CCL2 = CCL2 secretion into media of 832/13 cells, ELISA
# Procedure: (§1) 832/13 cells were grown in 12-well plates and treated as indicated. RPMI was supplemented with 0.3% BSA, and media were collected at the indicated time points. In addition, the cells were lysed using M-PER lysis reagent (Thermo Fisher Scientific) to quantify total intracellular protein content. CCL2 and CCL20 secretion into the media was measured by CCL2 Quantikine ELISA kit (R & D Systems, Minneapolis, Minn.) and CCL20 DuoSet ELISA kit (R & D Systems) according to the manufacturer's protocol. ELISA data were normalized to total protein to account for any differences in cell number between treatment groups.
# CCL20 = CCL20 secretion into media of 832/13 cells, ELISA; details: glucose 2, 4, 8 or 16 mM; IL-1β 6 h
# Procedure: as §1
# Nkx6.1 = Nkx6.1 protein abundance, immunoblot of cytosolic and nuclear fractions; details: 832/13 cells, IL-1β 4 h
# Procedure: Cell lysis and extraction of cytoplasmic and nuclear protein fractions was performed using the NE-PER kit (Thermo Fisher Scientific) according to the manufacturer's directions. The protein concentration of the lysate was determined using the bicinchoninic acid assay (Thermo Fisher Scientific), using BSA as the standard. SDS-PAGE, transfer to polyvi-nylidene difluoride membranes, membrane blocking before antibody incubation, and downstream subsequent detection using a ChemiDoc imaging system (Bio-Rad) have been described previously (16). Antibodies detecting β-actin or tubulin were used as loading controls. Antibodies used were from the following sources: iNOS (Santa Cruz Biotechnology), (3-actin (Cell Signaling Technology), Ikα: (Santa Cruz Biotechnology), tubulin (Cell Signaling Technology), and Pdx-1 (Cell Signaling Technology). The antibody recognizing Nkx6.1 has been described (34). Immunoblot images were quantified using Image Lab software (Bio-Rad).
# 832/13 cells [1] = assay: MTS dye reduction assay; details: 1 ng/ml IL-1β, 18 h
# Procedure: Nitrite in the cell culture media was measured as an index of NO production using the Griess assay kit (Promega, Madison, Wis.), whereas cellular reduction of the 3-(4,5-dimethylthiazol-2-yl)-5-(3-carboxymethoxyphenyl)-2-(4-sulfophe-nyl)-2H-tetrazohum, inner salt (MTS) dye was determined using the MTS 1 solution kit (Promega) according to the manufacturer's protocol.
# 832/13 cells [2] = assay: Oxygen consumption rate (Seahorse XF24); details: 1 ng/ml IL-1β, 18 h
# Procedure: Oxygen consumption rates (OCR) were measured using the XF^24 Extracellular Flux Analyzer (Seahorse Bioscience, Chicopee, Mass.). 832/13 cells were grown on cell culture plates for 2 days prior to OCR assays being run. Cells were treated with vehicle, 1 ng/ml IL-β, 1 mM I-NMMA, or both IL-1β (1 ng/ml) plus I-NMMA (1 mM) for 18 h prior to OCR being measured. The oxygen consumption rate was measured over a 2-h period. Data represent the calculated average area under the curve from six wells per treatment group over multiple independent experiments.
# [3] = tested on: voltage-gated Ca^2+ channels; assay: Whole cell voltage clamp recordings; details: n=25; for cell size (whole cell capacitance) vs control: IL-1β pretreatment
# Source text: Cell culture dishes were mounted on the stage of an Olympus K70 inverted microscope. A reference Ag/AgCl pellet served to ground the bath. Patch electrodes were pulled from thick-walled borosilicate glass with a filament (outer diameter 1.5 mm; inner diameter: 0.86 mm; Sutter Instruments, Novato, Calif.) using a Haming-Brown Micropipette Puller (Sutter Instruments). Electrode resistance values ranged from 4 to 7 Mfl. Ruptured patch, whole cell voltage clamp recordings were made using an Axopatch ID-patch clamp amplifier (Molecular Devices, Sunnyvale, Calif.). Data were recorded using pClamp 10.0 software (Molecular Devices). Unless otherwise indicated, all reagents were purchased from Sigma-Aldrich (St. Louis, Mo.). External solutions consisted of the following (in mM): 116.7 NaCl, 20.0 TEAC1, 3.0 CaCl2, 0.4 MgCl2, 4.0 glucose, and 10.0 HEPES. Voltage clamp experiments were performed in the ruptured patch configuration using the following internal solution (in mM): 100.00 CsAc, 10.0 CsCl, 2.0 MgCl2, 0.1 CaCl2, and 10.0 HEPES. Also included was an ATP regeneration system to preserve Ca^2+ currents [3.0 ATP (dipotassium), 1.0 ATP (disodium), 20.0 phosphocreatine, 2.0 GTP, and 50 U/ml creatine phos-phokinase]. Cesium was used as a substitute for K^+ to minimize currents through voltage-gated K^+ channels. Tetrodotoxin (300 nM; Alomone Laboratories, Jerusalem, Israel) was included in the external solution to block voltage-gated Na^+ currents. The liquid junction potential error for these solutions was estimated to be −13 mV (pClamp). Solutions were adjusted to pH 7.4 with NaOH for external solutions and with CsOH for internal solutions. A pressurized gravity flow perfusion system (1.5-2 mi/min) was used to deliver the external solutions (AutoMate Scientific, Berkeley, Calif.).
substance,measurement,setting,value
"IL-1β: proinflammatory cytokine purchased from Thermo Fisher Scientific, used at 1 ng/ml",expression and secretion of CCL2 in response to IL-1β,"CCL2; 832/13 cells, 1 ng/ml IL-1β",markedly elevated; also recorded: strongly induced
same,time to chemokine secretion after cellular exposure,CCL2; IL-1β,3 to 6 h
same,IL-1β-induced secretion of CCL2 over a range of glucose concentrations,"CCL2; glucose 2, 4, 8 or 16 mM, IL-1β 6 h",not different
same,IL-1β-induced secretion of CCL20 over a range of glucose concentrations,CCL20,not different
same,decrease in Nkx6.1 abundance,Nkx6.1,47%
same,decrease in reduction of the MTS dye,832/13 cells [1],38%
same,decrease in cellular oxygen consumption rate,832/13 cells [2],25%
same,cell size (whole cell capacitance) vs control,[3],no effect on cell size
same,cell size (whole cell capacitance) vs control,[3]; listed as IL-I1β,not significantly different
same,voltage-gated Ca^2+ current density vs control,"[3]; IL-1β-treated 832/13 cells, step to −3 mV",not significantly different; also recorded: No significant difference
